Laboratory results reported in patent US4546098A, “Estrogen synthesis inhibitors” (The Rockefeller University, priority 1984, dated 1985).

Molecular target: T1, aromatase (Homo sapiens, UniProt P11511)
T1 construct: incubated with 5 ml of a placental microsomes; from tissue; host or cells: placental microsomes
T1 sequence (P11511 1-503): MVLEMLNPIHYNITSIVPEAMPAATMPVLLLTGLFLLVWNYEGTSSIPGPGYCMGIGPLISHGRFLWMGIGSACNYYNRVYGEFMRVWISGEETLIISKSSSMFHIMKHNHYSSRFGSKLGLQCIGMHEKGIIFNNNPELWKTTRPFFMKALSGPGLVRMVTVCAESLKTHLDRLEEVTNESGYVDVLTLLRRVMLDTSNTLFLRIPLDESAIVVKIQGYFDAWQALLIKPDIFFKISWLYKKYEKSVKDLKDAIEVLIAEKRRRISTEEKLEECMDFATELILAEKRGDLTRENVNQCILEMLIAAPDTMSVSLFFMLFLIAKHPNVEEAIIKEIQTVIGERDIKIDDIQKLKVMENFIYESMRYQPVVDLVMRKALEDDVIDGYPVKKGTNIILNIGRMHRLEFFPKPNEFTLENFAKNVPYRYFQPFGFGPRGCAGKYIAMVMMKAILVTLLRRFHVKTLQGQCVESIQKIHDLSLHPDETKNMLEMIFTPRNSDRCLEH
Assay: Inhibition of formic acid formation from [19,19,19-3H]androst-4-ene-3,17-dione by placental microsomes
Format: biochemical
Conditions: placental microsomes 1 mg/ml (5 ml), pH 7.2, 37° C., 30 minutes; inhibitor 4 n mole, androstenedione 4 n mole; NADPH
Protocol: A mixture of [19,19,19-^3 H]androst-4-ene-3,17-dione diluted with cold androstenedione (2.8×10^6 dpm, 4 n mole) and an inhibitor (4 n mole) in ethanol (50 μl) was incubated with 5 ml of a placental microsomes (1 mg/ml of 0.05M tris-HCl, pH 7.2) in the presence of NADPH (5 mg), glucose-6-phosphate (2.5 mg), and glucose-6-phosphate dehydrogenase (3.1 units). The incubations were carried out at 37° C. for 30 minutes in air. A control incubation was carried out as above except that the inhibitor was excluded. The incubation mixture (1 ml) was mixed with 1M phosphoric acid (1 ml), flash frozen and lyophilized. Radioactivity in 0.5 ml of the distilled component was measured (A). And 1.2 ml of the distilled component was mixed with 0.3 ml of 1N sodium hydroxide, flash frozen, and lyophilized. Radioactivity in 0.5 ml of the distilled water was measured (B).

| SMILES | % Inhibition of formic acid formation [%] |
| --- | --- |
| C=C1C=C2CC[C@H]3[C@@H]4CC[C@H](O)[C@@]4(C)CC[C@@H]3[C@@]2(C)CC1 [Cmpd. 1, 3-methylene-androst-4-ene-17β-ol] | 43 |
| C=C1C=C2CC[C@@H]3[C@H](CC[C@]4(C)C(=O)CC[C@@H]34)[C@@]2(CO)CC1 [Cmpd. 9, 3-methylene-androst-4-ene-19-ol-17-one] | 90 |
| C=C1C=C2CC[C@@H]3[C@H](CC[C@]4(C)C(=O)CC[C@@H]34)[C@@]2(C)CC1 [Cmpd. 3, 3-methylene-androst-4-ene-17-one] | 86 |
| C=C1C=C2CC[C@@H]3[C@H](CC[C@]4(C)C(=O)CC[C@@H]34)[C@@]2(C=O)CC1 [Cmpd. 53, 3-Methylene-androst-4-ene-17,19-dione] | 70 |
| C=C1C=C2CC[C@@H]3[C@H](CC[C@]4(C)[C@@H](O)CC[C@@H]34)[C@@]2(CO)CC1 [Cmpd 5, 3-methylene-androst-4-ene-17β,19-diol] | 55 |
